Consider five compounds from paper PMC6139576 (Journal of Medicinal Chemistry, 2018).

For one test, the target named is human EAAT1 (hEAAT1) (Homo sapiens, UniProt P43003). The test can be described thus: [3H]-D-Asp uptake assay, hEAAT1-HEK293 cells. The test is classed as cell-based.
The target of the next test is human EAAT2 (hEAAT2) (Homo sapiens, UniProt P43004). The test can be described thus: [3H]-D-Asp uptake assay, hEAAT2-HEK293 cells. The test is classed as cell-based.
The target of another test is T1, human EAAT3 (hEAAT3) (Homo sapiens, UniProt P43005).
T1 sequence (P43005 1-524): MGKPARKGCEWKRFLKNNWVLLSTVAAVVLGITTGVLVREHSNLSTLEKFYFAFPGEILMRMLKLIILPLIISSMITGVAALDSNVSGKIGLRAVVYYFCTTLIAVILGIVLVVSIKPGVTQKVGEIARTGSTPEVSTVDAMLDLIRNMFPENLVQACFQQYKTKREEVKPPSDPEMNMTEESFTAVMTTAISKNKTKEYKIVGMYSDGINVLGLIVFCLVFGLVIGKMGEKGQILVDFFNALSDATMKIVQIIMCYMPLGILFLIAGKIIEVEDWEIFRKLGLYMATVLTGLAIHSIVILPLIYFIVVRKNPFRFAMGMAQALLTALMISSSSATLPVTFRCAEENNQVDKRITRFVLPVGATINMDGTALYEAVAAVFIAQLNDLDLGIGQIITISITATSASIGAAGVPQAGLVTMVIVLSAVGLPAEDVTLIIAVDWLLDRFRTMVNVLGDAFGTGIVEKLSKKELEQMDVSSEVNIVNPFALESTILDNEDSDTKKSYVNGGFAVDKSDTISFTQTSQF
The test can be described thus: [3H]-D-Asp uptake assay, hEAAT3-HEK293 cells. The test is classed as cell-based. As to conditions: hEAAT3 pIC50 ± S.E.M.

The target of a further test is T2, rat EAAT4 (rEAAT4) (Rattus norvegicus, UniProt O35921).
T2 sequence (O35921 1-561): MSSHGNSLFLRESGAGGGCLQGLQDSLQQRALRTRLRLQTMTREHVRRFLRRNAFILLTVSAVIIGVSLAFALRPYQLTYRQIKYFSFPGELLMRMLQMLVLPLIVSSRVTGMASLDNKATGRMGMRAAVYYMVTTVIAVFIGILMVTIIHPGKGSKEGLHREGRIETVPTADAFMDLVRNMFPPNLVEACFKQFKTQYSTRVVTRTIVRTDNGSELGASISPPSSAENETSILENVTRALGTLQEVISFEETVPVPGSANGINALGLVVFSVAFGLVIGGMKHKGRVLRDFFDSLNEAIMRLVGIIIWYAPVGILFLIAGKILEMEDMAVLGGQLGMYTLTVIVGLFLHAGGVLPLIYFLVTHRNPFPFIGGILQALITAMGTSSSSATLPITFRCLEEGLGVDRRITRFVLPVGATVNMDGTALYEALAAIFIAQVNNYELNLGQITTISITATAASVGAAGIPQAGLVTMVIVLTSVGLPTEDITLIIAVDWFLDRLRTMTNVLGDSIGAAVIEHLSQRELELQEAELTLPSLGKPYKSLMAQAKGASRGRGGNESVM
The test can be described thus: [3H]-D-Asp uptake assay, rEAAT4-tsA201 cells. The test is classed as cell-based.

Another test relates to EAAT3. Particulars: cited from earlier work.

Sequence of human EAAT2 (hEAAT2) (P43004 whole entry, the tested form may be a part): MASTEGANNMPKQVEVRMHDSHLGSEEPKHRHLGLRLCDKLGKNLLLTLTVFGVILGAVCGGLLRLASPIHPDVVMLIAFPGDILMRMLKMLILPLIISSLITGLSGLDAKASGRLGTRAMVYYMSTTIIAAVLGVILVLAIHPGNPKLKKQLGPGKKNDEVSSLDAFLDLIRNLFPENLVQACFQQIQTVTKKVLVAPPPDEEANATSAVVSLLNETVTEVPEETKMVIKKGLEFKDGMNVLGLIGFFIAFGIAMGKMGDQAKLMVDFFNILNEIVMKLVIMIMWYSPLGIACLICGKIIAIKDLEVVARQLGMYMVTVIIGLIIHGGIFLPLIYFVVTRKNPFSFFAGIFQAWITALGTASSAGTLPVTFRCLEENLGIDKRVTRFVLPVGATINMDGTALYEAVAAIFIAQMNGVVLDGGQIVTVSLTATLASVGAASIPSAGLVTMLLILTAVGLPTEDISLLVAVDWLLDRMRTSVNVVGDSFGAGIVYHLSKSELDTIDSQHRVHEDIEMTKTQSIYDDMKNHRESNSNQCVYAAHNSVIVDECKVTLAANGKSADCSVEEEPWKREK
Sequence of human EAAT1 (hEAAT1) (P43003 whole entry, the tested form may be a part): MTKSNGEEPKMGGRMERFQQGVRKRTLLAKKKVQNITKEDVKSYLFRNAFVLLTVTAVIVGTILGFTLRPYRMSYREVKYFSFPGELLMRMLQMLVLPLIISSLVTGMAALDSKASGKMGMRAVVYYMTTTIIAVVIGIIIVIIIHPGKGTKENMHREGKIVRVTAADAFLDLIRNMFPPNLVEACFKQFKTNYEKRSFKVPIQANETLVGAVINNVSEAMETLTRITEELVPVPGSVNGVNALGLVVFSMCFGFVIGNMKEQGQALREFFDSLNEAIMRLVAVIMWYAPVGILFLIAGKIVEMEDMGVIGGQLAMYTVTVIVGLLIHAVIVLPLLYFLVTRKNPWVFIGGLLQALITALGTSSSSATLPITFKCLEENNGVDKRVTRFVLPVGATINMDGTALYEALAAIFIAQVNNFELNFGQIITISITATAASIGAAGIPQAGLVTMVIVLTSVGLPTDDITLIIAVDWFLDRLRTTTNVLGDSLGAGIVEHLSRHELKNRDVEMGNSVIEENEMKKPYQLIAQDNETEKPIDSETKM

The IC50 is the concentration needed to halve the response being measured. As for `C#CCO[C@H](C(=O)O)[C@@H](N)C(=O)O` (racemic) [DL-erythro-19c, (DL-erythro)-3-(Prop-2-yn-1-yloxy)aspartate], the IC50 at human EAAT1 (hEAAT1) (hEAAT1 IC50, [3H]-D-Asp uptake, HEK293 cells) was 99 µM; on human EAAT2 (hEAAT2) (hEAAT2 IC50, [3H]-D-Asp uptake, HEK293 cells) it was 82 µM; against human EAAT3 (hEAAT3) it was 28.2 µM; against rat EAAT4 (rEAAT4), about 100 µM.
With `N[C@H](C(=O)O)[C@H](OCC1CC1)C(=O)O` (racemic) [DL-threo-19a, (DL-threo)-3-(Cyclopropylmethoxy)aspartate], the 50% inhibitory concentration (IC50) against human EAAT3 (hEAAT3) is 3.72 µM; on rat EAAT4 (rEAAT4), 15.8 µM.
`N[C@H](C(=O)O)[C@H](OCc1ccsc1)C(=O)O` (racemic) [DL-threo-19b, (DL-threo)-3-(Thiophen-3-ylmethoxy)aspartate] displayed an IC50 against rat EAAT4 (rEAAT4) of 4.27 µM.
As for `N[C@H](C(=O)O)[C@H](OCc1cccc(NC(=O)Cc2ccc(C(F)(F)F)cc2)c1)C(=O)O` [3d], the “fold increased IC50 at hEAAT1 relative to L-TFB-TBOA” value on human EAAT1 (hEAAT1) (versus L-TFB-TBOA (3a)) is reported as 5–10 fold. Moreover, on human EAAT2 (hEAAT2) (versus L-TFB-TBOA (3a)), the “fold increased IC50 at hEAAT2 relative to L-TFB-TBOA” value was 5–10 fold. Besides, the “fold increased IC50 at rEAAT4 relative to L-TFB-TBOA” value on rat EAAT4 (rEAAT4) (versus L-TFB-TBOA (3a)) is reported as 5–10 fold.
For `N[C@H](C(=O)O)[C@H](Cc1ccccc1)C(=O)O` [compound 4, L-threo-3-benzylaspartate], the “preference as an inhibitor for EAAT3 over EAAT1 and EAAT2” value in the test with EAAT3 is 10 fold.
